Reference: publication PMC9254721, “Global update on the susceptibilities of human influenza viruses to neuraminidase inhibitors and the cap-dependent endonuclease inhibitor baloxavir, 2018–2020” (Antiviral research, 2022)

Assays:
[1] = system: B/Yamagata-lineage virus neuraminidase (NA); format: biochemical, influenza B/Yamagata-lineage virus
[2] = system: A(H1N2)v viruses; format: cell-based
[3] = system: influenza viruses; format: cell-based, influenza virus

SMILES	inhibition phenotype (NI/RI/HRI) [1]	baloxavir susceptibility [2]	fold increase compared to the respective median EC50 [3]
CC(=O)N[C@H]1[C@H]([C@H](O)[C@H](O)CO)OC(C(=O)O)=C[C@@H]1N=C(N)N [Zanamivir, zanamivir]	RI (key: normal inhibition (NI) is a <5-fold increase in the NAI IC50; RI is a 5- to 50-fold increase; HRI is a >50-fold increase)		
COC(=O)OCOc1c2n(ccc1=O)N([C@@H]1c3ccccc3SCc3c1ccc(F)c3F)[C@@H]1COCCN1C2=O [baloxavir, baloxavir marboxil]		susceptible	< 3 fold
